Counter-ions that a name gives are not always drawn.
How the values were obtained:
[1] = Stability of BH4 dihydrochloride dry blend powder / sachet formulations; type: physicochemical; settings: Initial time point
Experimental: Stability under different storage conditions were assessed and the potency of the active BH4 dihydrochloride is presented.
Certain embodiments of the sachet dosage forms of the present disclosure are illustrated in Table 18, with a comparison of the stability of different BH4 or BH4-related compounds packaged in foil pouches.

physchem = type: physicochemical; settings: water
Excerpt: However, despite the commonality of wet granulation methods, it is not ideal for all blends. Specifically, BH4 dihydrochloride is moisture sensitive and will rapidly degrade in the presence of water. Furthermore, BH4 dihydrochloride is pH sensitive and commonly degrades in the presence of reducing sugars, flavoring agents, flavor enhancers, and aqueous solutions and thus wet blending of BH4 dihydrochloride with excipients can lead to degradation of the active ingredient. […] Accordingly, the dry blend method of producing a stable BH4 dihydrochloride powder sachet dosage is ideal.

[2] = Clinical evaluation of BH4 capsules: drug levels in cerebrospinal fluid; type: in vivo; settings: doses up to 40 mg/kg/day as a single dose; expected
Experimental: The clinical evaluation comprises two clinical studies.
A first study evaluates the relative bioavailability of BH4 dihydrochloride administered as a capsule in fasted conditions and after a meal in healthy subjects. Ascending doses of BH4 dihydrochloride up to 40 mg/kg/day are evaluated and drug levels in cerebrospinal fluid (CSF) are measured. […] Measurement of BH4 levels in CSF is expected to be indicative of BH4 availability in brain tissues.

[3] = room temperature, aqueous solutions; cited from earlier work
[4] = children treated for 4, 8, and 12 weeks; cited from earlier work
[5] = children, after 6 months of treatment; cited from earlier work

Q: What does the source list for `C[C@H](O)[C@H](O)[C@H]1CNc2[nH]c(N)nc(=O)c2N1.Cl.Cl` [100 μg/mL reference API]?
A: Degradation/impurity: BH2 (Dihydrobiopterin) [1]: 0.04 area %; Degradation/impurity: BH4 [1]: 0.05 area %; Degradation/impurity: R-Tetrahydrobiolumazine [1]: 0.05 area %; Degradation/impurity: S-BH4 [1]: 0.03 area %; Potency (%) [1]: 100.6%; Total Impurities (%) [1]: 0.17%

Q: For `C[C@H](O)[C@H](O)[C@H]1CNc2nc(N)[nH]c(=O)c2N1` [BH4 dihydrochloride, (6R)-L-erythro-5,6,7,8-tetrahydrobiopterin dihydrochloride], which solubility (physchem) is on record?
A: The solubility was > 100 mg/mL.

Q: What about the “peak levels of BH4 in CSF” value [2] of the same molecule?
A: The value was “higher peak levels”.

Q: Which results are given for `C[C@H](O)[C@H](O)[C@H]1CNc2nc(N)[nH]c(=O)c2N1` [BH4, (6R)-L-erythro-5,6,7,8-tetrahydrobiopterin]?
A: shelf-life [3]: less than 8 hours; total scores on the Parental Satisfaction Survey (PSS) [4]: significant increases; social interaction scores [5]: significant improvement
